Results as given in patent US10717742B2, “Spiro[3H-indole-3,2′-pyrrolidin]-2(1H)-one compounds and derivatives as MDM2-P53 inhibitors” (Boehringer Ingelheim International GmbH, priority 2015, dated 2020).

Target: p53-MDM2 interaction (GST-MDM2 protein aa 23-117 / biotinylated p53 wt peptide) (Homo sapiens (Human), UniProt Q00987)
Sequence (Q00987 23-117): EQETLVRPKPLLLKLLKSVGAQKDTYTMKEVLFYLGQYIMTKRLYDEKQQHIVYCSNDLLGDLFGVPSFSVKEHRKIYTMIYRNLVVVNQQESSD
Test: Mdm2-p53 Inhibition AlphaScreen
Assay type: binding
Conditions: GST-MDM2 (aa 23-117) / biotinylated p53 wt peptide
Molecule O=C(NO)c1ccc2c(c1)nc1n2CC[C@H]2[C@@H]1[C@H](c1cccc(Cl)c1F)[C@]1(C(=O)Nc3cc(Cl)ccc31)N2CC1CC1 [Ib-231] has an IC50 of 4 nM. In the case of CC(C)CN1[C@H]2CCn3c(nc4cc(C(N)=O)ccc43)[C@H]2[C@H](c2cccc(Cl)c2F)[C@]12C(=O)Nc1cc(Cl)ccc12 [Ib-232], the IC50 is reported as 3 nM. In the case of CNC(=O)c1ccc2c(c1)nc1n2CC[C@H]2[C@@H]1[C@H](c1cccc(Cl)c1F)[C@]1(C(=O)Nc3cc(Cl)ccc31)N2CC(C)C [Ib-233], the IC50 is reported as 4 nM. CNC(=O)c1cc2nc3n(c2cc1OC)CC[C@H]1[C@@H]3[C@H](c2cccc(Cl)c2F)[C@]2(C(=O)Nc3cc(Cl)ccc32)N1CC1CC1 [Ib-235] showed an IC50 of 3 nM. COc1cc2c(cc1C(=O)N(C)C)nc1n2CC[C@H]2[C@@H]1[C@H](c1cccc(Cl)c1F)[C@]1(C(=O)Nc3cc(Cl)ccc31)N2CC1CC1 [Ib-236] showed an IC50 of 5 nM. For CNC(=O)c1cc2nc3n(c2cc1C)CC[C@H]1[C@@H]3[C@H](c2cccc(Cl)c2F)[C@]2(C(=O)Nc3cc(Cl)ccc32)N1CC1CC1 [Ib-237], the IC50 was 10 nM. For NC(=O)c1ccc2nc3n(c2c1)CC[C@H]1[C@@H]3[C@H](c2cccc(Cl)c2F)[C@]2(C(=O)Nc3cc(Cl)ccc32)N1CC1CC1 [Ib-238], the IC50 was 6 nM. NC(=O)c1ccc2c(c1)nc1n2C[C@H]2[C@@H]1[C@H](c1cccc(Cl)c1F)[C@]1(C(=O)Nc3cc(Cl)ccc31)N2CC1CC1 [Ib-239] gave an IC50 of 3 nM. Work on CNC(=O)c1ccc2c(c1)nc1n2C[C@H]2[C@@H]1[C@H](c1cccc(Cl)c1F)[C@]1(C(=O)Nc3cc(Cl)ccc31)N2CC1CC1 [Ib-240] yielded an IC50 of 3 nM. Molecule CCOc1cccc(CN2[C@H]3Cn4c(nc5cc(C(N)=O)ccc54)[C@H]3[C@H](c3cccc(Cl)c3F)[C@]23C(=O)Nc2cc(Cl)ccc23)c1 [Ib-241] has an IC50 of 4 nM. With CCOc1cccc(CN2[C@H]3Cn4c(nc5cc(C(N)=O)ccc54)[C@H]3[C@H](c3cccc(Cl)c3F)[C@]23C(=O)Nc2cc(Cl)ccc23)c1 [Ib-242] the IC50 was 2 nM. CCOc1cccc(CN2[C@@H]3Cn4c(nc5cc(C(N)=O)ccc54)[C@@H]3[C@@H](c3cccc(Cl)c3F)[C@@]23C(=O)Nc2cc(Cl)ccc23)c1 [Ib-243] showed an IC50 of 99 nM. With CCOc1cccc(CN2[C@H]3Cn4c(nc5cc(C(=O)NO)ccc54)[C@H]3[C@H](c3cccc(Cl)c3F)[C@]23C(=O)Nc2cc(Cl)ccc23)c1 [Ib-244] the IC50 was 3 nM. O=C1Nc2cc(Cl)ccc2[C@@]12[C@@H](c1cccc(Cl)c1F)[C@@H]1c3nc4cc(CO)ccc4n3CC[C@@H]1N2CC1CC1 [Ib-245] showed an IC50 of 20 nM. Nc1ccc2c(c1)nc1n2CC[C@H]2[C@@H]1[C@H](c1cccc(Cl)c1F)[C@]1(C(=O)Nc3cc(Cl)ccc31)N2CC1CC1 [Ib-247] gave an IC50 of 27 nM. O=C1Nc2cc(Cl)ccc2[C@@]12[C@@H](c1cccc(Cl)c1F)[C@@H]1c3nc4cc(N5CCCCC5)ccc4n3CC[C@@H]1N2CC1CC1 [Ib-249] gave an IC50 of 240 nM. For O=C1Nc2cc(Cl)ccc2[C@@]12[C@@H](c1cccc(Cl)c1F)[C@@H]1c3nc4ccccc4n3CC[C@@H]1N2CC1CC1 [Ib-253], the IC50 was 72 nM. Molecule Cc1c(C(=O)O)ccn2c3c(nc12)[C@@H]1[C@H](C3)N(CC2CC2)[C@@]2(C(=O)Nc3cc(Cl)ccc32)[C@H]1c1ccnc(Cl)c1F [Ic-23] has an IC50 of 6 nM. In the case of CCOc1cccc(CN2[C@H]3Cc4c(nc5c(C)c(C(=O)O)ccn45)[C@H]3[C@H](c3ccnc(Cl)c3F)[C@]23C(=O)Nc2cc(Cl)ccc23)c1 [Ic-27], the IC50 is reported as 13 nM. With Cc1c(C(=O)N(C)C)ccn2c3c(nc12)[C@@H]1[C@H](C3)N(CC2CC2)[C@@]2(C(=O)Nc3cc(Cl)ccc32)[C@H]1c1ccnc(Cl)c1F [Ic-29] the IC50 was 10 nM. Molecule Cc1c(C(=O)N2CCCCC2)ccn2c3c(nc12)[C@@H]1[C@H](C3)N(CC2CC2)[C@@]2(C(=O)Nc3cc(Cl)ccc32)[C@H]1c1ccnc(Cl)c1F [Ic-35] has an IC50 of 10 nM. Cc1c(C(=O)N2CCOCC2)ccn2c3c(nc12)[C@@H]1[C@H](C3)N(CC2CC2)[C@@]2(C(=O)Nc3cc(Cl)ccc32)[C@H]1c1ccnc(Cl)c1F [Ic-37] gave an IC50 of 10 nM.

Test system: p53 wild-type vs. p53 mutant cell lines
Test: not given
Conditions: in vitro, PPTP of the NCI; cited from earlier work
For CCOc1cc(C(C)(C)C)ccc1C1=N[C@@](C)(c2ccc(Cl)cc2)[C@@](C)(c2ccc(Cl)cc2)N1C(=O)N1CCN(CCCS(C)(=O)=O)CC1 [RG-7112], the “cytotoxic activity, median IC50” value is listed as “lower median IC50 values for p53 wild-type vs. p53 mutant cell lines”.

Test system: solid tumor xenograft models
Test: not given
Conditions: cited from earlier work
For CCOc1cc(C(C)(C)C)ccc1C1=N[C@@](C)(c2ccc(Cl)cc2)[C@@](C)(c2ccc(Cl)cc2)N1C(=O)N1CCN(CCCS(C)(=O)=O)CC1 [RG-7112], the tumor growth inhibition is listed as “induced tumor growth inhibition”.

Test system: acute lymphoblastic leukemia (ALL) xenograft models with mixed-lineage leukemia (MLL) rearrangement
Test: not given
Conditions: cited from earlier work
In the case of CCOc1cc(C(C)(C)C)ccc1C1=N[C@@](C)(c2ccc(Cl)cc2)[C@@](C)(c2ccc(Cl)cc2)N1C(=O)N1CCN(CCCS(C)(=O)=O)CC1 [RG-7112], the “efficacy in xenograft models” value is given as “particularly efficacious”.

Test system: human acute myeloid leukemia (AML) and human prostate tumor xenograft models harboring p53 wild-type
Test: not given
Conditions: cited from earlier work
In the case of CCOc1cc(C(C)(C)C)ccc1C1=N[C@@](C)(c2ccc(Cl)cc2)[C@@](C)(c2ccc(Cl)cc2)N1C(=O)N1CCN(CCCS(C)(=O)=O)CC1 [RG7112], the “antiproliferative and proapoptotic activity” value is given as “antiproliferative and proapoptotic activity”.
